Source: the NIST ThermoML archive (doi:10.1021/acs.jced.5b00270)

Conditions: Liquid, Capillary tube (Ostwald / Ubbelohde) method

C1CCCCC1 [cyclohexane]
Conditions | viscosity [mPa·s]
303.1 K, 2930 kPa | 0.852
305.1 K, 960 kPa | 0.801
305.2 K, 140 kPa | 0.796
305.2 K, 1960 kPa | 0.819
305.2 K, 3940 kPa | 0.839
313.8 K, 2920 kPa | 0.721
323.7 K, 150 kPa | 0.601
323.7 K, 1990 kPa | 0.614
323.7 K, 4000 kPa | 0.631
324 K, 1020 kPa | 0.616
348.9 K, 140 kPa | 0.432
348.9 K, 990 kPa | 0.44
348.9 K, 2080 kPa | 0.445
348.9 K, 3030 kPa | 0.451
348.9 K, 3930 kPa | 0.449
373.7 K, 970 kPa | 0.331
373.7 K, 2020 kPa | 0.336
373.7 K, 2930 kPa | 0.34
373.7 K, 3960 kPa | 0.346
398.1 K, 2000 kPa | 0.262
398.1 K, 4010 kPa | 0.27
398.2 K, 960 kPa | 0.258
398.2 K, 2940 kPa | 0.266
422.4 K, 960 kPa | 0.204
422.5 K, 1970 kPa | 0.209
422.5 K, 2960 kPa | 0.214
422.5 K, 3960 kPa | 0.216
447.5 K, 1010 kPa | 0.165
447.6 K, 2040 kPa | 0.165
447.7 K, 3010 kPa | 0.17
447.7 K, 4000 kPa | 0.174
473.3 K, 3000 kPa | 0.138
473.4 K, 1930 kPa | 0.131
473.4 K, 3930 kPa | 0.139
497.9 K, 3050 kPa | 0.106
498.1 K, 3980 kPa | 0.11
498.2 K, 3020 kPa | 0.106
498.3 K, 4020 kPa | 0.11
523 K, 3050 kPa | 0.0791
523 K, 3970 kPa | 0.0856

CCCCCCCCCC [decane]
Conditions | viscosity [mPa·s]
303.1 K, 3970 kPa | 0.828
303.2 K, 960 kPa | 0.8
303.2 K, 3010 kPa | 0.814
303.3 K, 150 kPa | 0.788
303.3 K, 2000 kPa | 0.808
323.7 K, 1120 kPa | 0.617
323.7 K, 1990 kPa | 0.628
323.7 K, 3010 kPa | 0.625
323.8 K, 140 kPa | 0.606
323.8 K, 3960 kPa | 0.631
348.9 K, 140 kPa | 0.459
348.9 K, 1050 kPa | 0.465
348.9 K, 2090 kPa | 0.469
348.9 K, 2930 kPa | 0.475
348.9 K, 3950 kPa | 0.481
373.7 K, 130 kPa | 0.365
373.7 K, 960 kPa | 0.368
373.7 K, 2040 kPa | 0.373
373.7 K, 2890 kPa | 0.376
373.7 K, 3960 kPa | 0.381
398.1 K, 3940 kPa | 0.312
398.2 K, 140 kPa | 0.295
398.2 K, 990 kPa | 0.299
398.2 K, 2030 kPa | 0.304
398.2 K, 2910 kPa | 0.309
423.4 K, 2960 kPa | 0.254
423.4 K, 3940 kPa | 0.258
423.5 K, 950 kPa | 0.247
423.5 K, 1060 kPa | 0.246
423.5 K, 2110 kPa | 0.251
447.7 K, 1060 kPa | 0.206
447.7 K, 1990 kPa | 0.209
447.7 K, 2960 kPa | 0.212
447.7 K, 3990 kPa | 0.216
473.4 K, 2150 kPa | 0.174
473.4 K, 2920 kPa | 0.177
473.4 K, 3990 kPa | 0.18
498.2 K, 3890 kPa | 0.152
498.3 K, 2090 kPa | 0.146
498.3 K, 3060 kPa | 0.15
523 K, 3970 kPa | 0.129
523.1 K, 1060 kPa | 0.118
523.1 K, 1940 kPa | 0.122
523.1 K, 3000 kPa | 0.126
547.9 K, 1070 kPa | 0.0957
547.9 K, 1980 kPa | 0.1
547.9 K, 2940 kPa | 0.105
547.9 K, 4000 kPa | 0.108
573.6 K, 1930 kPa | 0.0796
573.7 K, 2970 kPa | 0.0855
573.8 K, 4030 kPa | 0.091
598.4 K, 4020 kPa | 0.0745
598.5 K, 2090 kPa | 0.0619
598.5 K, 2980 kPa | 0.0696
